Measurements reported in ChEMBL document CHEMBL4665687, “Isolation of 2-Alkyl-4-quinolones with Unusual Side Chains from a Chinese Pseudomonas aeruginosa Isolate” (J Nat Prod, 2020).
Active and inactive are the calls of the source. No cut-off for these calls is given here.

Tests used:
[1] = system: Staphylococcus epidermidis; assay: Antibacterial activity against Staphylococcus epidermidis; format: functional, organism-based
[2] = system: Staphylococcus aureus; assay: Antibacterial activity against Staphylococcus aureus; format: functional, organism-based
[3] = system: HeLa; assay: Cytotoxicity against human HeLa cells assessed as reduction in cell viability; format: functional, cell-based

SMILES	Activity [1]	Activity [2]	Activity [3]
CCCC/C=C/CCCc1cc(=O)c2ccccc2[nH]1	Active	Active	inactive
CCCCCCCCC/C=C/c1cc(=O)c2ccccc2[nH]1	Active	Active	inactive
CCCCCCCc1cc(=O)c2ccccc2[nH]1	Active	Active	inactive
CCCCC/C=C/c1cc(=O)c2ccccc2[nH]1	Active	Active	inactive
CCCCCCC/C=C/c1cc(=O)c2ccccc2[nH]1	Active	Active	inactive
CCCC/C=C/Cc1cc(=O)c2ccccc2[nH]1	Active	Active	inactive
CCCCCC/C=C/Cc1cc(=O)c2ccccc2[nH]1	Active	Active	inactive
CS/C=C/c1cc(=O)c2ccccc2[nH]1	Active	Active	inactive
O=c1cc(Cc2ccccc2)[nH]c2ccccc12	Active	Active	inactive
CC/C(C)=C/Cc1cc(=O)c2ccccc2[nH]1	Active	Active	inactive
CCCCCCCCc1cc(=O)c2ccccc2[nH]1	Active	Active	inactive
CCCCCCCc1cc(O)c2ccccc2[n+]1[O-]	Active	Active	inactive
CCCCCC/C=C\CCCc1cc(=O)c2ccccc2n1O	Active	Active	inactive
CCCCCCCCCc1cc(=O)c2ccccc2[nH]1	Active	Active	inactive
CCCCCC/C=C\CCCc1cc(=O)c2ccccc2[nH]1	Active	Active	inactive
CC(C)CCCCc1cc(=O)c2ccccc2[nH]1	Active	Active	inactive
